From patent US8492391B2, “Substituted 6-(2-hydroxybenzylamino)purine derivatives, their use as medicaments and compositions containing these derivatives” (Univerzita Palackeho V Olomouci, priority 2009, dated 2013)

Assays:
p53 = test: p53-dependent transcription, β-galactosidase reporter in Arn8 cells; type: cell-based, human; parameters: key to p53 (effect): induction of p53 protein: ++: very strong; +: weak; −: no effect
P388D1 leukemia = test: Survival model of P388D1 leukemia transplanted intraperitoneally; type: in vivo, DBA-2 mice; conditions: 250 mg/kg orally twice daily, Days 1-3 and 7-9
Procedure: Screening of biological activity of compound 128 was performed on survival model of P388D1 leukemia transplanted intraperitoneally with 2.10^5 cells. DBA-2 mice were used as a host. One day following the leukemia transplantation, treatment with 128 was initiated. The drug was given orally by gastric gavages in total volume of 200 μl/dose twice daily at dose 250 mg/kg in two chemotherapy cycles (Days 1-3 and 7-9). The compound 128 was solubilized in 5% N-methyl-2-pyrollidine, 30% polyethylene glycol 400, 65% tartar buffer (pH 3.0). Survival analysis of treated animals (10 mice/group) was preformed in comparison with vehicle treated mice using Kaplan-Meier method and the significance was evaluated by the log-rank test. Body weight of experimental animals was evaluated in parallel in order to reflect toxicity and efficacy of therapy. Comparative analysis of body weight was performed using non-parametric t-test.

[1] = system: HOS (human osteogenic sarcoma); test: Calcein AM cytotoxicity assay, HOS; type: cell-based; conditions: Homo sapiens, read-out: Cytotoxic activity IC50 (μM) HOS
Text: (§1) Cytotoxicity of the compounds is the major property determining their anticancer effect in vivo. One of the parameters used, as the basis for cytotoxicity assays, is the metabolic activity of viable cells. For example, a microtiter assay, which uses the Calcein AM, is now widely used to quantitate cell proliferation and cytotoxicity. For instance, this assay is used in drug screening programs and in chemosensitivity testing. Because only metabolically active cells cleave Calcein AM, these assays detect viable cells exclusively. The quantity of cleaved Calcein AM corresponds to the number of vital cells in the culture. We have been using the following cell lines: MCF7 (human breast adenocarcinoma), K562 (human chronic myelogenous leukaemia), HOS (human osteogenic sarcoma), HeLa (human cervical carcinoma), HL 60 (human promyelocytic leukaemia), G 361 (human malignant melanoma), CEM (human lymphoblastoid leukaemia). All cell lines were grown in DMEM medium (Gibco BRL) supplemented with 10% (v/v) fetal bovine serum and L-glutamine and maintained at 37° C. in a humidified atmosphere with 5% CO2. For cytotoxicity assays, 10^4 cells were seeded into each well of 96 well plate, allowed to stabilize for at least 2 h and then tested compounds were added at various concentrations ranging from 100 to 0.1 μM in triplicates. Three days after drug addition Calcein AM solution (Molecular Probes) was added and let to enter the cells for 1 hour. Fluorescence of viable cells was quantified using Fluoroskan Ascent (Microsystems).

[2] = system: p53, p21^WAF1, Mcl-1 in MCF-7 cells; test: Immunoblotting of p53, p21WAF1 and Mcl-1 in MCF-7 cells; type: cell-based, human
Procedure: For immunoblotting, cell were detached with rubber policeman and washed three times with ice-cold PBS and lysed in buffer (50 mM Tris, pH 7.4, 250 mM NaCl, 5 mM EDTA, 50 mM NaF, 1 mM Na3VO4, 1% Nonidet P40) containing mixture of protease and phosphatase inhibitors (Sigma-Aldrich, USA). 20 μg of total proteins were separated by SDS-polyacrylamide gel electrophoresis (SDS-PAGE) and transferred onto nitrocellulose membranes. Membranes were blocked in 5% milk and 0.1% Tween 20 in PBS and probed overnight with specific monoclonal antibodies or rabbit polyclonal sera. Primary antibodies specific for p53 (DO-1, in house), p21^WAF1 (118, in house), PARP-1 (2C10, Sigma-Aldrich St Louis, Mo., USA), Mcl-1 (S-19, Santa Cruz, USA), all used at 1 μg/ml. All primary antibodies were diluted in PBS containing 5% powdered milk; 0.1% Tween 20. Peroxidase conjugated rabbit anti-mouse immunoglobulin or porcine anti-rabbit immunoglobulin antisera (DAKO, Denmark) were used as the secondary antibodies and visualised with ECL reagents (Amersham-Pharmacia, Little Chalfont, UK).
The induction of p53 protein was apparent in 4 hrs but enhanced level of p21^WAF1 protein was observed only 12 hours after treatment with compound 128 (FIG. 5). The periods of time 12 and 24 hrs were chosen, since the level of protein expression reached a steady state.

[3] = system: MCF7 (human breast adenocarcinoma); test: Calcein AM cytotoxicity assay, MCF7; type: cell-based
Text: as §1

In the case of `CCC(CO)Nc1nc(NCc2cccc(OC)c2O)c2ncn(C(C)C)c2n1` (racemic) [Compound 128, (RS)-2-({6-[(2-hydroxy-3-methoxybenzyl)amino]-9-isopropyl-9-H-purin-2-yl}amino)butan-1-ol], the “p53 (effect): induction of p53 protein” value (p53; Arn8 cells stable transfected with a β-galactosidase reporter gene) is reported as “++”, the “total β-galactosidase activity” value (p53; Arn8 cells, 5 μM, 12 and 24 hours after treatment, vs DMSO control) is reported as “strong activity of β-galactosidase” and the “p53 (peak concentration in μM)” value (p53; Arn8 cells, concentration inducing maximum of β-galactosidase activity) is reported as 8.0 µM. For the same compound, the “activation of p53-dependent transcription” value (p53; Arn8 reporter cell line, β-galactosidase reporter activity) was “proved to activate p53-dependent transcription”, the “body weight of treated animals” value (P388D1 leukemia) was “reducing body weight of treated animals” and the mean survival time (P388D1 leukemia) was 27.4 days. For the same compound, the “survival (Kaplan-Meier, log-rank test)” value (P388D1 leukemia; vs vehicle, P=0.0427) was “significantly better survival”, the IC50 [1] was 5.9 µM and the “expression of p53, p21^Waf1 and Mcl-1” value ([2]; MCF7, 24 h, concentration dependent, immunoblotting) was “accumulation of tumor suppressor protein p53, expression of p53-regulated CDK inhibitor p21^Waf1 and downregulation of antiapoptotic protein Mcl-1”. The “time after treatment at which enhanced level of p21^WAF1 protein was observed” value ([2]; MCF-7 cells) was 12 h, the “time at which induction of p53 protein was apparent” value ([2]; MCF-7 cells) was 4 h and the IC50 ([3]; Homo sapiens, MCF7, read-out: Cytotoxic activity IC50 (μM) MCF7) was 5 µM. The “number of viable cells (antiproliferative activity)” value ([3]; MCF7, 72 h) was “significantly reduces the number of living cells”.
